{"source": "patent US20260240851A1", "about": "“Treatment of Parkinson's Disease in a Patient Using a Glucocerebrosidase Activator” (BIAL - R&D Investments, S.A., priority 2023, published 2026)", "key": {"[1]": {"test": "BIA 28-6156-106 mass balance recovery, metabolite profiling and PK of 14C-Compound A", "format": "in vivo, human", "description": "This was a Phase 1, single-dose, mass balance recovery study of ^14C-Compound A in 1 cohort of healthy male subjects, aged 30 to 65 years. A total of 6 subjects received a single oral dose of 60 mg Compound A, containing not more than 3.7 MBq ^14C, under fasted conditions. Objectives included determining the routes and rates of elimination of ^14C-Compound A, identifying the structure of metabolites that account for more than 10% of circulating total radioactivity in plasma and total radioactive dose in urine and feces, exploring the PK of Compound A, evaluating the extent of distribution of TR into blood cells, and gathering additional safety and tolerability information for Compound A."}, "[2]": {"test": "LTI-291-001: safety and tolerability", "format": "in vivo, human", "description": "This study was a first-in-human Phase 1, randomized, double-blind, placebo-controlled, single-ascending dose study to evaluate the safety and tolerability, PK, and PD of escalating single oral doses of Compound A (3, 10, 30, and 90 mg) in 4 cohorts of healthy subjects. A total of 32 subjects received a single oral dose of Compound A (8 per dose group) and 8 subjects received placebo. The effect of food on the PK of Compound A was evaluated by administering a second single oral dose of 10 mg Compound A to the subjects in Cohort 2 on a separate occasion, after subjects had completed a high-fat breakfast. Blood samples for Compound A PK were collected up to 48 hours after each dose."}, "[3]": {"test": "LTI-291-004 imaging study in GBA-PD: plasma concentrations", "format": "in vivo, human", "conditions": "Day 7, Day 14, Day 28, GBA-PD", "description": "(§1) This study was a Phase 1B, randomized, double-blind, placebo-controlled, multiple oral dose study of Compound A in 14 subjects (aged 51 to 81 years) with GBA-PD. The objectives of this study were to investigate the safety, tolerability, and PK of multiple once-daily oral administration of Compound A and to explore the accompanying pharmacodynamic changes. Subjects received once-daily oral doses of 10 mg (n=6) or 60 mg (2×30 mg capsules) (n=6) Compound A or placebo (n=2) for 28 consecutive days. PK samples were measured once on Day 7 and Day 14 and 4 times after the last dose on Day 28. Plasma concentrations were summarized at each time point, and no PK parameters were estimated. The PD evaluations included fMRI measures; FDG-PET to determine the metabolic rate of glucose in specific regions of the brain; and functional outcome measures (MDS-UPDRS Part III and the MMSE). GluCer, GluSph, and LacCer and other sphingolipids were measured in PBMCs and plasma as biomarkers of pharmacological effect."}, "[4]": {"test": "LTI-291-003: NeuroCart, MMSE, MDS-UPDRS, EEG", "format": "in vivo, human", "conditions": "10, 30, 60 mg daily for 28 days, GBA-PD", "description": "GluCer, GluSph, and LacCer were measured in plasma, PBMCs, and CSF as biomarkers of pharmacological effects. The pharmacodynamic evaluations also consisted of a battery of NeuroCart assessments (Saccadic Eye Movements, Smooth Pursuit Eye Movements, Adaptive Tracking, Body Sway, and Visual Verbal Learning Test); functional outcome measures (MDS-UPDRS Part III, and the MMSE); and pharmaco-EEG."}, "clinical": {"test": "clinical", "conditions": "both, human, plasma, 60 mg; for AUC(0-t): Madopar portion, geometric mean", "method": "This was a Phase 1, non-randomized, open-label, 2-cohort, cross-over, DDI study in healthy male and female subjects.\nIn Cohort 2, a single oral dose 100 mg/25 mg levodopa-benserazide (Madopar®) IR was administered alone on Day 1."}, "[5]": {"system": "GluCer, GluSph and LacCer in PBMCs and plasma", "test": "LTI-291-004: glycolipid biomarkers", "format": "in vivo, human", "description": "as §1"}}}
{"compound": "CCCCCO[C@H]1CC[C@H](NC(=O)c2cnn3c(C)cc(C)nc23)CC1", "note": "[Compound A, 5,7-dimethyl-N-((1S*,4S)-4-(pentyloxy)cyclohexyl)pyrazolo[1,5-a]pyrimidine-3-carboxamide]", "values": [{"measurement": "radioactivity recovered in excreta, mean", "setting": "[1]; 60 mg 14C-Compound A oral, fasted, 288-hour sampling period", "result": "approximately 93%"}, {"measurement": "exposure to Compound A as share of circulating plasma total recovery", "setting": "[1]; based on AUC0-inf", "result": "approximately 92%"}, {"measurement": "Tmax", "setting": "[1]; male, human, plasma, single oral dose of 60 mg 14C BIA-28, read-out: Median Tmax", "result": 1.5, "unit": "h"}, {"measurement": "AUC(0-inf)", "setting": "[1]; male, human, plasma, single oral dose of 60 mg 14C BIA-28, read-out: plasma AUC0-inf, geometric mean", "result": 42100, "unit": "ng·h/mL"}, {"measurement": "AUC(0-t)", "setting": "[1]; male, human, plasma, single oral dose of 60 mg 14C BIA-28, read-out: plasma AUC0-last, geometric mean", "result": 41700, "unit": "ng·h/mL"}, {"measurement": "Cmax", "setting": "[1]; male, human, plasma, single oral dose of 60 mg 14C BIA-28, read-out: plasma Cmax, geometric mean", "result": 1750, "unit": "ng/mL"}, {"measurement": "half-life", "setting": "[1]; male, human, plasma, single oral dose of 60 mg 14C BIA-28, read-out: plasma half-life, geometric mean (converted)", "result": 21.5, "unit": "h"}, {"measurement": "AE fatigue, subjects", "setting": "[2]; all Compound A groups", "result": 7.5, "unit": "%"}, {"measurement": "AE headache, subjects", "setting": "[2]; all Compound A groups", "result": 12.5, "unit": "%"}, {"measurement": "AE somnolence, subjects", "setting": "[2]; all Compound A groups", "result": 10, "unit": "%"}, {"measurement": "at least one AE in the GI system organ class, subjects", "setting": "[2]; all Compound A groups", "result": 7.5, "unit": "%"}, {"measurement": "vital signs, laboratory safety assessments, ECG parameters", "setting": "[2]; single doses", "result": "no clinically significant safety observations"}, {"measurement": "deaths, SAEs, severe AEs, discontinuations due to AEs", "setting": "[2]; single doses 3-90 mg", "result": "No deaths, other SAEs, severe AEs, or discontinuations due to AEs"}, {"measurement": "Mean plasma concentrations, 60 mg vs 10 mg", "setting": "[3]", "result": "higher after the 60 mg dose than after the 10 mg dose"}, {"measurement": "effects on NeuroCart tests, MMSE, MDS-UPDRS, EEG", "setting": "[4]", "result": "no dose-dependent effects"}, {"measurement": "Cmax", "setting": "clinical", "result": 2030, "unit": "ng/mL"}, {"measurement": "Tmax", "setting": "clinical", "result": 2, "unit": "h"}, {"measurement": "AUC(0-t)", "setting": "clinical; AUC0-24, 60 mg Compound A alone", "result": 24000, "unit": "ng·h/mL"}, {"measurement": "AUC(0-t)", "setting": "clinical; AUC0-t, 60 mg Compound A alone", "result": 22800, "unit": "ng·h/mL"}, {"measurement": "PBMC glycolipid levels", "setting": "[5]; 10 or 60 mg daily for 28 days, GBA-PD", "result": "Significant changes"}, {"measurement": "Plasma LacCer", "setting": "[5]; upon Compound A treatment", "result": "tended to decrease"}, {"measurement": "plasma GluCer or GluSph", "setting": "[5]; upon Compound A treatment", "result": "no effect was observed"}]}
